Results on 24 compounds are retold here after patent publication US10400224B2, “Enantioselective modified esterase enzyme and method for the production thereof” (CORPORACIÓN CORPOGEN, priority 2014, dated 2019).

Type in all cases: biochemical, Acidicaldus organivorans USBA-GBX-499
For assay [1], the system named is modified esterase 499EST. Nature of the assay: Effect of metallic ions on the activity of the modified esterase 499EST. The following applies: for Actividad relativa (%): pNPC8, 55° C., pH 9.0, control without additives = 100%. The protocol:
(§1) The activity of the modified enzyme was determined spectrophotometrically at 405 nm in a range of temperatures between 45 and 75° C., using p-nitro phenyl of other chains C6 to C10 (Sigma-Aldrich) as substrate. One unit of esterase activity was defined as the capacity of the enzyme to release 1 μmol min^−1 of p-nitrophenol under the essay conditions. The molar absorbance coefficient was of 16.900 M^−1 cm^−1. The mixture consisted of 448 μl of the Tris-HCl 50 mM buffer at 9.0 pH that contained 50 μl of p-nitrophenyl diluted in isopropanol and 2 μl of the solution stock of the protein. All the assays were made by triplicate and the average was calculated.
(§2) The evaluation of metallic, solvent and detergent ions and inhibitors of the modified enzyme was carried out incubating the enzyme in the presence of each of them for one hour at 30° C. The evaluation established the stability of the referenced enzyme at a control for which the enzyme was in absence of the additive. The result was expressed in percentage of residual activity, being 100% the control.
It was evaluated the effect of metallic ions on the enzyme activity. The ions evaluated were: CaCl2, FeCl3, MgCl2, CoCl2, NiCl2, ZnCl2, CuCl2 and MnCl2, the concentrations used were 1 mM and 10 mM. The effect of the ions Fe^3+ was evaluated at concentrations of 0.2 mM-10 mM, and its influence on the thermo stability between 50 and 65° C. (Table 1).

The next assay has as its system 499EST. As to the kind of experiment: Effect of inhibitors on the modified enzyme 499EST. The following applies: inhibitor 5 mM; one hour at 30° C. The protocol:
as §1, §2
(§3) The effect of the detergents, sodium dodecyl sulfate (SDS), Tween 20, Tween 80, Triton X-100, were evaluated at concentrations of 1 and 5% (v/v) (Table 2). In the evaluations it was determined the effect of inhibitors such phenylmethanesulfonyl fluoride-PMSF, ethylenediaminetetraacetic acid, EDTA, 2-mercaptoethanol (2-ME), dithiothreitol (DTT), the evaluated concentration was of 5 mM.

Assay [2] concerns modified esterase 499EST. Nature of the assay: Effect of organic solvents on the modified esterase. The following applies: for % actividad relativa: pNPC8, 55° C., pH 9.0; for esterase activity increased to: solvent at a concentration of 15% and 30%. As for the experimental part:
as §1, §2
Effect of organic solvents. The activity of the enzyme was evaluated in presence of different organic solvents. Two concentrations were evaluated, 15 and 30% of 1 butanol, 2 butanol, acetonitrile, acetone, 1-propanol, 2-propanol, methanol, ethanol, glycerol, dimethyl sulfoxide (DMSO), dimethyl formamide (DMF) (Table 3)

The test system of assay [3] is modified esterase 499EST. As to the kind of experiment: Effect of detergents on the modified esterase 499EST. The following applies: for % actividad relativa: pNPC8, 55° C., pH 9.0, control without additives = 100%. As for the experimental part: as §1, §2, §3

Turning to `[Cl][Mn][Cl]` [Mn^2+, MnCl2], the results for the “Actividad relativa (%)” value in the assay on modified esterase 499EST [1] (ion 1 mM) and in the assay on modified esterase 499EST [1] (ion 10 mM) were 252% and 127%, respectively.

Turning to `O=C(O)CN(CCN(CC(=O)O)CC(=O)O)CC(=O)O` [EDTA, ethylenediaminetetraacetic acid], the “decrease in the relative enzymatic activity” value in the assay with 499EST is 9%.

With `CCCO` [1-propanol], the “% actividad relativa” value stood at 26.8% in the assay on modified esterase 499EST [2] (organic solvent 15%) and 24.81% in the assay on modified esterase 499EST [2] (organic solvent 30%).

Consider `O[C@H](CS)[C@H](O)CS` (racemic) [DTT, dithiothreitol], for which the “inhibition of the enzymatic activity” value with 499EST is given as “totally inhibits”.

In the case of `CC(C)O` [2-propanol], the “% actividad relativa” value in the assay with modified esterase 499EST [2] (organic solvent 15%) is recorded as 80.0%; in the assay with modified esterase 499EST [2] (organic solvent 30%) it was 31.3%.

In the case of `C[S+](C)[O-]` [DMSO, dimethyl sulfoxide], the “% actividad relativa” value is reported as 180.0% in the assay on modified esterase 499EST [2] (organic solvent 15%) and 200.2% with modified esterase 499EST [2] (organic solvent 30%). In addition, the “esterase activity increased to” value in the assay on modified esterase 499EST [2] was 200%.

Regarding `[Cl-].[Cl-].[Mg+2]` [Mg^2+, MgCl2], the “Actividad relativa (%)” value in the assay with modified esterase 499EST [1] (ion 1 mM) is on record as 76%; with modified esterase 499EST [1] (ion 10 mM), 3%; in the assay on modified esterase 499EST [1] (ion 10 mM, listed as Mg^+2), “highest enzyme inhibition”.

In turn, `O=S(=O)(F)Cc1ccccc1` [PMSF, phenylmethanesulfonyl fluoride] showed an activity detected with 499EST of 80%.

Regarding `[Ca+2].[Cl-].[Cl-]` [Ca^2+, CaCl2], the “Actividad relativa (%)” value in the assay with modified esterase 499EST [1] (ion 1 mM) is reported as 9%; in the assay on modified esterase 499EST [1] (ion 10 mM), 7%; in the assay with modified esterase 499EST [1] (ion 10 mM, listed as Ca^+2) it was “highest enzyme inhibition”.

For the compound `CN(C)C=O` [DMF, dimethyl formamide], the “% actividad relativa” value in the assay on modified esterase 499EST [2] (organic solvent 15%) and in the assay on modified esterase 499EST [2] (organic solvent 30%) was 12.4% each time.

`CCCCCCCC/C=C\CCCCCCCC(=O)OCCOCC(OCCO)C1OCC(OCCO)C1OCCO` (centres unmarked) [Tween 80]: the figures for the “% actividad relativa” value with modified esterase 499EST [3] (detergent 1%) and in the assay on modified esterase 499EST [3] (detergent 5%) were 85% and 32%, respectively.

Regarding `OCC(O)CO` [Glicerol, glycerol], the “% actividad relativa” value in the assay on modified esterase 499EST [2] (organic solvent 15%) was found to be 234.8%; with modified esterase 499EST [2] (organic solvent 30%) it was 250.3%. Also, the “esterase activity increased to” value in the assay with modified esterase 499EST [2] is reported as 250%.

For `CCCCCCCCCCCCOS(=O)(=O)[O-].[Na+]` [SDS, sodium dodecyl sulfate], the “effect of detergent on lipolytic activity” value with modified esterase 499EST [3] (1 and 5% (v/v)) is reported as “strongly inhibits”. In addition, the “% actividad relativa” value in the assay with modified esterase 499EST [3] (detergent 1%) was 8%; in the assay on modified esterase 499EST [3] (detergent 5%), 6%.

Consider `[Cl-].[Cl-].[Zn+2]` [Zn^2+, ZnCl2], for which the “Actividad relativa (%)” value was 190% with modified esterase 499EST [1] (ion 1 mM); 21% in the assay with modified esterase 499EST [1] (ion 10 mM); “highest enzyme inhibition” with modified esterase 499EST [1] (ion 10 mM, listed as Zn^+2).

Turning to `OCCS` [β-mercaptoethanol, 2-mercaptoethanol], the “decrease in the relative enzymatic activity” value with 499EST is listed as 12%.

On to `CCC(C)O` (centres unmarked) [2-butanol], for which the “% actividad relativa” value in the assay on modified esterase 499EST [2] (organic solvent 15%) is on record as 16.3%; in the assay with modified esterase 499EST [2] (organic solvent 30%), 14.7%.

Consider `CCO` [Etanol, ethanol], for which the “% actividad relativa” value is recorded as 22% with modified esterase 499EST [2] (organic solvent 15%) and 12.9% in the assay with modified esterase 499EST [2] (organic solvent 30%).

Take 1-butanol: the “% actividad relativa” value turned out to be 1.5% in the assay on modified esterase 499EST [2] (organic solvent 15%) and 0.0% in the assay with modified esterase 499EST [2] (organic solvent 30%).

With `[Cl][Fe]([Cl])[Cl]` [Fe^3+, FeCl3], the entries for the “Actividad relativa (%)” value in the assay with modified esterase 499EST [1] (ion 1 mM) and in the assay on modified esterase 499EST [1] (ion 10 mM) were 111% and 342%, respectively. Also, the “increase of the specific activity of the enzyme” value with modified esterase 499EST [1] (ion concentration from 2 to 10 mM) is recorded as “up to 3 times”.

Turning to `[Cl][Cu][Cl]` [Cu^2+, CuCl2], the “Actividad relativa (%)” value was 16% in the assay with modified esterase 499EST [1] (ion 1 mM); 0% with modified esterase 499EST [1] (ion 10 mM); “highest enzyme inhibition” in the assay with modified esterase 499EST [1] (ion 10 mM, listed as Cu^+2).

Turning to `CC#N` [Acetonitrilo, acetonitrile], the “% actividad relativa” value with modified esterase 499EST [2] (organic solvent 15%) worked out at 17.0%; with modified esterase 499EST [2] (organic solvent 30%), 0.0%.

Regarding `CO` [Metanol, methanol], the “% actividad relativa” value with modified esterase 499EST [2] (organic solvent 15%) came to 3.0%; in the assay on modified esterase 499EST [2] (organic solvent 30%), 0.0%.

With `[Cl-].[Cl-].[Co+2]` [Co^2+, CoCl2], the “Actividad relativa (%)” value in the assay on modified esterase 499EST [1] (ion 1 mM) is 74%; with modified esterase 499EST [1] (ion 10 mM) it was 23%; with modified esterase 499EST [1] (ion 10 mM, listed as Co^+2), “highest enzyme inhibition”.

Turning to `CC(C)=O` [Acetona, acetone], the “% actividad relativa” value stood at 72.0% with modified esterase 499EST [2] (organic solvent 15%) and 9.7% with modified esterase 499EST [2] (organic solvent 30%).
